How the values were obtained:
Format in all cases: cell-based
[1] = system: A549 lung carcinoma; experiment: MTT in vitro cytotoxicity, A549; conditions: Homo sapiens, A549 cells, concentrations until 100 µM, incubation until 72 h
Excerpt: (§1) These compounds have been tested in a greater number of different cell lines. IC50 is the compound concentration at which 50% of a specific cell type die in a standardized assay, and thus a measure of cytotoxicity. Jurkat is a human leukaemia T cell line, GLC-4 is a human small-cell lung-carcinoma cell line, NIH-3T3 is a rat non-cancerous cell line, K-562 is a human chronic myelogenous leukemia cell line, A549 is a human lung carcinoma cell line, RPMI-1788 is a human leukocytes of peripherial blood from healthy […] cell line, MCF-7 is a human breast adenocarcinoma cell line, Capan-2 is a human pancreas adenocarcinoma cell line, Colo320HSR is a human colon carcinoma cell line, SW-837 is a human rectum adenocarcinoma cell line, IM-9 is a human bone marrow myeloma cell line, IMR-32 is a human neuroblastoma cell line and MT-4 is a human mixed heart's and peripheral blood's lymphocytes of patients with T-cell leukemia cell line. Table 2. Biological activities of IIIa-IIIg.
(§2) The in vitro cytotoxicity of the compounds of the present invention was evaluated by colorimetric assays with tetrazol salts (MTT) on Jurkat clon E6-1 leukemia, on GLC-4 clon carcinoma, on K-562 chronic myelogenous leukemia, on A549 lung carcinoma, on RPMI-1788 leukocytes of peripherial blood from healthy […], on MCF-7 breast adenocarcinoma, on Capan-2 pancreas adenocarcinoma, on Colo320HSR colon carcinoma, on SW-837 rectum adenocarcinoma, on IM-9 bone marrow myeloma, on IMR-32 neuroblastoma and on MT-4 mixed heart's and peripheral blood's lymphocytes of patients with T-cell leukemia human cell lines, according to the protocol described by Mosmann et al. (J. Immunol. Methods, 1983,65, 55-63) incorporated herein by reference. In all cases the concentrations used were until 100 µM and times of incubation until 72 h. […] Table 3. Biological activities.

[2] = system: Jurkat clon E6-1 leukemia; experiment: MTT in vitro cytotoxicity, Jurkat; conditions: Homo sapiens, Jurkat cells, concentrations until 100 µM, incubation until 72 h
Excerpt: (§3) IC50 is the compound concentration at which 50% of a specific cell type die in a standardized assay, and thus a measure of cytotoxicity. Jurkat is a human leukaemia T cell line, GLC-4 is a human small-cell lung-carcinoma cell line and NIH-3T3 is a rat non-cancerous cell line. [drawing 3]
as §1, §2

[3] = system: RPMI-1788 leukocytes of peripherial blood from healthy person; experiment: MTT in vitro cytotoxicity, RPMI-1788; conditions: Homo sapiens, RPMI-1788 cells (from healthy person), concentrations until 100 µM, incubation until 72 h
Excerpt: as §1, §2

[4] = system: K-562 chronic myelogenous leukemia; experiment: MTT in vitro cytotoxicity, K-562; conditions: Homo sapiens, K562, K-562 cells, concentrations until 100 µM, incubation until 72 h
Excerpt: as §1, §2

[5] = system: GLC-4; experiment: MTT in vitro cytotoxicity, GLC-4; conditions: Homo sapiens, GLC4, GLC-4 cells, concentrations until 100 µM, incubation until 72 h
Excerpt: as §3, §1, §2

[6] = system: SW-837 rectum adenocarcinoma; experiment: MTT in vitro cytotoxicity, SW-837; conditions: Homo sapiens, SW837, SW-837 cells, concentrations until 100 µM, incubation until 72 h
Description: (§4) These compounds have been tested in a greater number of different cell lines. IC50 is the compound concentration at which 50% of a specific cell type die in a standardized assay, and thus a measure of cytotoxicity. […]
(§5) The in vitro cytotoxicity of the compounds of the present invention was evaluated by colorimetric assays with tetrazol salts (MTT) on Jurkat clon E6-1 leukemia, on GLC-4 clon carcinoma, on K-562 chronic myelogenous leukemia, on A549 lung carcinoma, on RPMI-1788 leukocytes of peripherial blood from healthy […], on MCF-7 breast adenocarcinoma, on Capan-2 pancreas adenocarcinoma, on Colo320HSR colon carcinoma, on SW-837 rectum adenocarcinoma, on IM-9 bone marrow myeloma, on IMR-32 neuroblastoma and on MT-4 mixed heart's and peripheral blood's lymphocytes of patients with T-cell leukemia human cell lines, according to the protocol described by Mosmann et al. (J. Immunol. […]

[7] = system: MT-4 mixed heart's and peripheral blood's lymphocytes of patients with T-cell leukemia; experiment: MTT in vitro cytotoxicity, MT-4; conditions: Homo sapiens, MT4, MT-4 cells, concentrations until 100 µM, incubation until 72 h
Description: as §4, §5

[8] = system: IM-9 bone marrow myeloma; experiment: MTT in vitro cytotoxicity, IM-9; conditions: Homo sapiens, IM-9 cells, concentrations until 100 µM, incubation until 72 h
Description: as §4, §5

[9] = system: Colo320HSR colon carcinoma; experiment: MTT in vitro cytotoxicity, Colo320HSR; conditions: Homo sapiens, Colo-320HSR cells, concentrations until 100 µM, incubation until 72 h
Description: as §4, §5

[10] = system: NIH-3T3; experiment: Cytotoxicity in non-cancerous cell line NIH-3T3; conditions: NIH3T3; NIH-3T3 non-cancerous cell line
Excerpt: as §3, §1

[11] = system: Capan-2 pancreas adenocarcinoma; experiment: MTT in vitro cytotoxicity, Capan-2; conditions: Homo sapiens, Capan-2 cells, concentrations until 100 µM, incubation until 72 h
Description: as §4, §5

[12] = system: MCF-7 breast adenocarcinoma; experiment: MTT in vitro cytotoxicity, MCF-7; conditions: Homo sapiens, MCF7, MCF-7 cells, concentrations until 100 µM, incubation until 72 h
Description: as §4, §5

[13] = system: IMR-32 neuroblastoma; experiment: MTT in vitro cytotoxicity, IMR-32; conditions: Homo sapiens, IMR-32 cells, concentrations until 100 µM, incubation until 72 h
Description: as §4, §5

SMILES	IC50 [1] [µM]	IC50 [2] [µM]	IC50 [3] [µM]	IC50 [4] [µM]	IC50 [5] [µM]	IC50 [6] [µM]	IC50 [7] [µM]	IC50 [8] [µM]	IC50 [9] [µM]	IC50 [10] [µM]	IC50 [11] [µM]	IC50 [12] [µM]	IC50 [13] [µM]
CN(CCCNC(=O)c1c2ccccc2nc2c1[nH]c1ccccc12)CCCNC(=O)c1c2cc(F)ccc2nc2c1[nH]c1ccccc12 [IIIf, N-[3-[[3-[11-((2-fluoro-10H-indolo[3,2-b]quinoline)carbonyl)amino]-propyl]-methylamino]propyl]-10H-indolo[3,2-b]quinoline-11-carboxamide]	1.6	0.2	1.7	2.8	–	–	–	–	–	–	–	–	–
CN(CCCNC(=O)c1c2cc(Br)ccc2nc2c1[nH]c1ccccc12)CCCNC(=O)c1c2cc(Br)ccc2nc2c1[nH]c1ccccc12 [IIIc, N,N'-(4-methyl-4-azaheptamethylene)-di-(-2-bromo-10H-indolo[3,2-b]quinoline)-11,11'-carboxamide]	–	0.8	9.1	–	–	–	–	–	–	–	–	–	–
O=C(O)c1c2cc(Cl)ccc2nc2c1[nH]c1ccccc12 [IIa]	–	> 25	–	–	15.7	–	–	–	–	–	–	–	–
CN(CCCNC(=O)c1c2cc(F)ccc2nc2c1[nH]c1ccccc12)CCCNC(=O)c1c2cc(F)ccc2nc2c1[nH]c1ccccc12 [IIIb, N,N'-(4-methyl-4-azaheptamethylene)-di-(-2-fluoro-10H-indolo[3,2-b]quinoline)-11,11'-carboxamide]	10	0.5	5.3	1.1	–	17.9	9	7.5	3.2	64.3	25.5	4.8	0.7
CN(CCCNC(=O)c1c2cc(Cl)ccc2nc2c1[nH]c1ccccc12)CCCNC(=O)c1c2cc(Cl)ccc2nc2c1[nH]c1ccccc12 [IIIa, N,N'-(4-methyl-4-azaheptamethylene)-di-(-2-chloro-10H-indolo[3,2-b]quinoline)-11,11'-arboxamide]	12.2	0.09	3	0.65	0.16	6.2	4.5	4.6	0.45	11.2	20.1	3.4	0.9
CN(CCCNC(=O)c1c2ccccc2nc2c1[nH]c1ccccc12)CCCNC(=O)c1c2cc(Cl)ccc2nc2c1[nH]c1ccccc12 [IIIg, N-[3-[[3-[11-((2-chloro-10H-indolo[3,2-b]quinoline)carbonyl)amino]-propyl]-methylamino]propyl]-10H-indolo[3,2-b]quinoline-11-carboxamide]	6.2	0.7	3.2	5.8	–	–	–	–	–	–	–	–	–
CN(CCCNC(=O)c1c2cc(Cl)ccc2nc2c1[nH]c1ccccc12)CCCNC(=O)c1c2cc(Br)ccc2nc2c1[nH]c1ccccc12 [IIId, N-[3-[[3-[11-((2-bromo-10H-indolo[3,2-b]quinoline)carbonyl)amino]-propyl]-methylamino]propyl]-2-chloro-10H-indolo[3,2-b]quinoline-11-carboxamide]	12.9	0.6	3.5	5.3	–	–	–	–	–	–	–	–	–
CN(CCCNC(=O)c1c2ccccc2nc2c1[nH]c1ccccc12)CCCNC(=O)c1c2ccccc2nc2c1[nH]c1ccccc12 [Ia, reference compound]	–	0.97	–	–	1.45	–	–	–	–	6.77	–	–	–
CN(CCCNC(=O)c1c2cc(F)ccc2nc2c1[nH]c1ccccc12)CCCNC(=O)c1c2cc(Cl)ccc2nc2c1[nH]c1ccccc12 [IIIe, N-[3-[[3-[11-((2-chloro-10H-indolo[3,2-b]quinoline)carbonyl)amino]-propyl]-methylamino]propyl]-2-fluoro-10l-l-indolo[3,2-b]quinoline-11-carboxamide]	11.6	0.5	2.9	6.1	–	–	–	–	–	–	–	–	–
O=C(O)c1c2cc(F)ccc2nc2c1[nH]c1ccccc12 [IIb]	–	13	–	–	12	–	–	–	–	–	–	–	–
O=C(O)c1c2cc(Br)ccc2nc2c1[nH]c1ccccc12 [IIc]	–	> 25	–	–	–	–	–	–	–	–	–	–	–

Source: patent EP1885364B1, “HALOGENATED QUINDOLINE DIMERS FOR THE TREATMENT OF CANCER” (Crystax Pharmaceuticals, S.L., priority 2005, dated 2006)
